The assay addresses T1, 5-HT1A serotonin receptor (Rattus norvegicus, UniProt P19327).
T1 construct: following the procedure of Hall et al., J. Neurochem; 44, 1685(1985); from tissue
T1 sequence (P19327 1-422): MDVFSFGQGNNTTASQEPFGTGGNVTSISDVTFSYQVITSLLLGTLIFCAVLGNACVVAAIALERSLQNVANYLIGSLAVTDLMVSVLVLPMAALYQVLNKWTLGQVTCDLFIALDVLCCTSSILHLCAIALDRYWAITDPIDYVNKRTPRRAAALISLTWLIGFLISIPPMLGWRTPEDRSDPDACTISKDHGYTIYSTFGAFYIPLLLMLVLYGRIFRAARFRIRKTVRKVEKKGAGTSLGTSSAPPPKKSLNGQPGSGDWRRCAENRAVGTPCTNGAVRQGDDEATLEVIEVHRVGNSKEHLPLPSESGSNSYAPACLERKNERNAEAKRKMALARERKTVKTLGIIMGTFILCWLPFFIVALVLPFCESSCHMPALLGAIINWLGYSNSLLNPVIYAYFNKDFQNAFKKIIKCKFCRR
The assay is described as follows: displacement of [^3 H] 8-OHDPAT from the 5-HT1A serotonin receptor (procedure of Hall et al.). The conditions noted are these: read-out: 5-HT1A Binding (IC50). From the text: High affinity for the serotonin 5-HT1A receptor was established by testing the claimed compound's ability to displace [^3 H] 8-OHDPAT (dipropylaminotetralin) from the 5-HT1A serotonin receptor following the procedure of Hall et al., J. Neurochem. 44, 1685(1985). […] The anxiolytic activity of buspirone is believed to be, at least partially, due to its 5-HT1A receptor affinity (Vander Maclen et al., Eur. J. Pharmacol. 1986, 129 (1-2) 133-130).
The result of the standard experimental test procedure described in the preceding paragraph was as follows when applied to the representative compound of this invention: […]

With `COc1ccccc1N1CCN(CCC(C(=O)NCCN2CCOCC2)c2ccccc2)CC1` (stereo not shown) [Example 1, 4-[4-(2-Methoxy-phenyl)-piperazin-1-yl]-N-(2-morpholin-4-yl-ethyl)-2phenyl-butyramide], the IC50 came to 95.2 nM.

Source of the values: US5602128A, “N-heterocycloalkyl carboxamides as serotonergic agents” (American Home Products Corporation, priority 1994, dated 1997).
